In PubChem BioAssay AID2060610 (Molecular Pharmacology Branch, DTP, NCI, 2025):
Several values for one entry are separate records, joined by “and”; a condition that tells them apart may be missing. Equal values may be shown once.

Tested on: 616215-338-R-J1-PDC complex spheroids, viability % test/control
Test: Anticancer human tumor 616215-338-R-J1-PDC patient-derived colon adenocarcinoma cell line growth inhibition [CLK]
Details: for viability, T/C: stronger effect = lower value
Summary of the method: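 Multi-cell-type spheroids combined patient-derived tumor cells with HUVEC endothelial cells and human mesenchymal stem cells. Paired agents were dosed in half-log steps down from about clinical Cmax, or from 10 microM where Cmax was unknown.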

[1] = curve of first compound, second compound 0.0316 µM
[2] = curve of first compound, second compound 0.1 µM
[3] = curve of first compound, second compound 0.316 µM
[4] = curve of first compound, second compound 1 µM
[5] = curve of first compound, second compound 3.16 µM
[6] = curve of first compound, second compound 10 µM
[7] = second compound 0.0316 µM, first compound 0.0316 µM
[8] = second compound 0.0316 µM, first compound 0.1 µM
[9] = second compound 0.0316 µM, first compound 0.316 µM
[10] = second compound 0.0316 µM, first compound 1 µM
[11] = second compound 0.0316 µM, first compound 3.16 µM
[12] = second compound 0.0316 µM, first compound 10 µM
[13] = second compound 0.1 µM, first compound 0.0316 µM
[14] = second compound 0.1 µM, first compound 0.1 µM
[15] = second compound 0.1 µM, first compound 0.316 µM
[16] = second compound 0.1 µM, first compound 1 µM
[17] = second compound 0.1 µM, first compound 3.16 µM
[18] = second compound 0.1 µM, first compound 10 µM
[19] = second compound 0.316 µM, first compound 0.0316 µM
[20] = second compound 0.316 µM, first compound 0.1 µM
[21] = second compound 0.316 µM, first compound 0.316 µM
[22] = second compound 0.316 µM, first compound 1 µM
[23] = second compound 0.316 µM, first compound 3.16 µM
[24] = second compound 0.316 µM, first compound 10 µM
[25] = second compound 1 µM, first compound 0.0316 µM
[26] = second compound 1 µM, first compound 0.1 µM
[27] = second compound 1 µM, first compound 0.316 µM
[28] = second compound 1 µM, first compound 1 µM
[29] = second compound 1 µM, first compound 3.16 µM
[30] = second compound 1 µM, first compound 10 µM
[31] = second compound 3.16 µM, first compound 0.0316 µM
[32] = second compound 3.16 µM, first compound 0.1 µM
[33] = second compound 3.16 µM, first compound 0.316 µM
[34] = second compound 3.16 µM, first compound 1 µM
[35] = second compound 3.16 µM, first compound 3.16 µM
[36] = second compound 3.16 µM, first compound 10 µM
[37] = second compound 10 µM, first compound 0.0316 µM
[38] = second compound 10 µM, first compound 0.1 µM
[39] = second compound 10 µM, first compound 0.316 µM
[40] = second compound 10 µM, first compound 1 µM
[41] = second compound 10 µM, first compound 3.16 µM
[42] = second compound 10 µM, first compound 10 µM
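Note: spheroids exposed to agents for 7 days.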
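Throughout, for viability, T/C: 100% = DMSO vehicle wells.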

**Q.** For O=c1[nH]cc(F)c(=O)[nH]1 + CN1CCN(c2cc(C(=O)Nc3cc4cc(-c5cnn(C)c5)ccc4cn3)ccn2)CC1, which IC50 [1] is on record?
**A.** 796 nM

**Q.** What about the IC50 [2] of the same compound?
**A.** 692 nM

**Q.** What about the IC50 [3] of the same compound?
**A.** < 31.6 nM

**Q.** What about the IC50 [4] of the same compound?
**A.** < 31.6 nM

**Q.** And the IC50 [5]?
**A.** < 31.6 nM

**Q.** And the IC50 [6]?
**A.** < 31.6 nM

**Q.** And the viability, T/C [7]?
**A.** 98.6%

**Q.** And the viability, T/C [8]?
**A.** 119%

**Q.** What about the viability, T/C [9] of the same compound?
**A.** 64.4%

**Q.** What about the viability, T/C [10] of the same compound?
**A.** 46.2%

**Q.** What about the viability, T/C [11] of the same compound?
**A.** 42.4%

**Q.** What about the viability, T/C [12] of the same compound?
**A.** 50.6%

**Q.** What about the viability, T/C [13] of the same compound?
**A.** 121%

**Q.** What about the viability, T/C [14] of the same compound?
**A.** 109%

**Q.** What about the viability, T/C [15] of the same compound?
**A.** 61.2%

**Q.** And the viability, T/C [16]?
**A.** 49.6%

**Q.** What about the viability, T/C [17] of the same compound?
**A.** 38.7%

**Q.** And the viability, T/C [18]?
**A.** 41.1%

**Q.** And the viability, T/C [19]?
**A.** 31.9%

**Q.** What about the viability, T/C [20] of the same compound?
**A.** 34.7%

**Q.** What about the viability, T/C [21] of the same compound?
**A.** 41.8%

**Q.** And the viability, T/C [22]?
**A.** 33.3%

**Q.** And the viability, T/C [23]?
**A.** 29.6%

**Q.** And the viability, T/C [24]?
**A.** 26.6%

**Q.** What about the viability, T/C [25] of the same compound?
**A.** 0.14%

**Q.** And the viability, T/C [26]?
**A.** 1.14%

**Q.** What about the viability, T/C [27] of the same compound?
**A.** 2.43%

**Q.** What about the viability, T/C [28] of the same compound?
**A.** 0.08%

**Q.** What about the viability, T/C [29] of the same compound?
**A.** 2.58%

**Q.** And the viability, T/C [30]?
**A.** 2.28%

**Q.** What about the viability, T/C [31] of the same compound?
**A.** 0.08%

**Q.** And the viability, T/C [32]?
**A.** 0.42%

**Q.** And the viability, T/C [33]?
**A.** 1.29%

**Q.** And the viability, T/C [34]?
**A.** 0.07%

**Q.** And the viability, T/C [35]?
**A.** 0.09%

**Q.** What about the viability, T/C [36] of the same compound?
**A.** 0.13%

**Q.** What about the viability, T/C [37] of the same compound?
**A.** 0.07%

**Q.** What about the viability, T/C [38] of the same compound?
**A.** 1.38%

**Q.** And the viability, T/C [39]?
**A.** 4.56%

**Q.** What about the viability, T/C [40] of the same compound?
**A.** 0.1%

**Q.** And the viability, T/C [41]?
**A.** 2.34%

**Q.** And the viability, T/C [42]?
**A.** 0.19%

**Q.** Which IC50 [1] does the source give for CCCS(=O)(=O)Nc1ccc(F)c(C(=O)c2c[nH]c3ncc(-c4ccc(Cl)cc4)cc23)c1F + CN1CCN(c2cc(C(=O)Nc3cc4cc(-c5cnn(C)c5)ccc4cn3)ccn2)CC1 here?
**A.** 1510 nM

**Q.** And the IC50 [2]?
**A.** 1690 nM

**Q.** And the IC50 [3]?
**A.** < 31.6 nM

**Q.** What about the IC50 [4] of the same compound?
**A.** < 31.6 nM

**Q.** What about the IC50 [5] of the same compound?
**A.** < 31.6 nM

**Q.** And the IC50 [6]?
**A.** < 31.6 nM

**Q.** What about the viability, T/C [7] of the same compound?
**A.** 21.5%

**Q.** And the viability, T/C [8]?
**A.** 34.8%

**Q.** And the viability, T/C [9]?
**A.** 99.9%

**Q.** And the viability, T/C [10]?
**A.** 98.2%

**Q.** What about the viability, T/C [11] of the same compound?
**A.** 25.5%

**Q.** What about the viability, T/C [12] of the same compound?
**A.** 0.01%

**Q.** And the viability, T/C [13]?
**A.** 24.7%

**Q.** And the viability, T/C [14]?
**A.** 36.4%

**Q.** And the viability, T/C [15]?
**A.** 105%

**Q.** And the viability, T/C [16]?
**A.** 105%

**Q.** What about the viability, T/C [17] of the same compound?
**A.** 28.9%

**Q.** What about the viability, T/C [18] of the same compound?
**A.** 0.01%

**Q.** What about the viability, T/C [19] of the same compound?
**A.** 10.4%

**Q.** What about the viability, T/C [20] of the same compound?
**A.** 12.8%

**Q.** And the viability, T/C [21]?
**A.** 38.1%

**Q.** And the viability, T/C [22]?
**A.** 29.9%

**Q.** And the viability, T/C [23]?
**A.** 21%

**Q.** What about the viability, T/C [24] of the same compound?
**A.** 0%

**Q.** And the viability, T/C [25]?
**A.** 0.01%

**Q.** What about the viability, T/C [26] of the same compound?
**A.** 0.08%

**Q.** And the viability, T/C [27]?
**A.** 0.17%

**Q.** What about the viability, T/C [28] of the same compound?
**A.** 1.99%

**Q.** What about the viability, T/C [29] of the same compound?
**A.** 0.6%

**Q.** And the viability, T/C [30]?
**A.** 0.01%

**Q.** And the viability, T/C [31]?
**A.** 0.01%

**Q.** What about the viability, T/C [32] of the same compound?
**A.** 0.06%

**Q.** And the viability, T/C [33]?
**A.** 0.14%

**Q.** And the viability, T/C [34]?
**A.** 0.13%

**Q.** And the viability, T/C [35]?
**A.** 0.08%

**Q.** What about the viability, T/C [36] of the same compound?
**A.** 0%

**Q.** And the viability, T/C [37]?
**A.** 0.03%

**Q.** And the viability, T/C [38]?
**A.** 0.07%

**Q.** And the viability, T/C [39]?
**A.** 0.17%

**Q.** What about the viability, T/C [40] of the same compound?
**A.** 0.19%

**Q.** And the viability, T/C [41]?
**A.** 0.25%

**Q.** And the viability, T/C [42]?
**A.** 0%

**Q.** Which results are given for C#Cc1c(F)ccc2cc(O)cc(-c3ncc4c(N5CC6CCC(C5)N6)nc(OCC56CCCN5CC(F)C6)nc4c3F)c12 (configuration not stated) + CNC(=O)c1ccc(Nc2nc(OC3CCCC3)c3c(-c4ccc5nc(C)oc5c4)c[nH]c3n2)c(OC)c1?
**A.** IC50 [1]: > 10000 nM; IC50 [2]: 232 nM; IC50 [3]: < 31.6 nM; IC50 [4]: < 31.6 nM; IC50 [5]: < 31.6 nM; IC50 [6]: < 31.6 nM; viability, T/C [7]: 88.8%; viability, T/C [8]: 90.4%; viability, T/C [9]: 94.1%; viability, T/C [10]: 91.1%; viability, T/C [11]: 112%; viability, T/C [12]: 110%; viability, T/C [13]: 59.7%; viability, T/C [14]: 56.2%; viability, T/C [15]: 45.5%; viability, T/C [16]: 43%; viability, T/C [17]: 32.3%; viability, T/C [18]: 24.4%; viability, T/C [19]: 47.2%; viability, T/C [20]: 43.8%; viability, T/C [21]: 43.2%; viability, T/C [22]: 42.3%; viability, T/C [23]: 33%; viability, T/C [24]: 18.6%; viability, T/C [25]: 44.1%; viability, T/C [26]: 44.2%; viability, T/C [27]: 38.8%; viability, T/C [28]: 30.7%; viability, T/C [29]: 30.4%; viability, T/C [30]: 17.8%; viability, T/C [31]: 38.7%; viability, T/C [32]: 41.3%; viability, T/C [33]: 37.3%; viability, T/C [34]: 33.1%; viability, T/C [35]: 24.2%; viability, T/C [36]: 18.2%; viability, T/C [37]: 48.6%; viability, T/C [38]: 42.6%; viability, T/C [39]: 33.2%; viability, T/C [40]: 34.7%; viability, T/C [41]: 24.8%; viability, T/C [42]: 18.9%

**Q.** How did the viability, T/C (compound 0.0316 µM) turn out when COC1C=CCC(C)C(C)S(=O)(=O)NC(=O)c2ccc3c(c2)N(CC2CCC21)CC1(CCCc2cc(Cl)ccc21)CO3 (configuration not stated) was run?
**A.** 42.2% and 92.1%

**Q.** And the viability, T/C (compound 0.1 µM)?
**A.** 33.1% and 98.1%

**Q.** And the viability, T/C (compound 0.316 µM)?
**A.** 95.7% and 96.9%

**Q.** What about the viability, T/C (compound 1 µM) of the same compound?
**A.** 104% and 101%

**Q.** What about the viability, T/C (compound 3.16 µM) of the same compound?
**A.** 38.7% and 103%

**Q.** And the IC50 (curve of compound)?
**A.** 2050 nM and > 10000 nM
